Measurements from patent publication US10758623B2, “Pharmaceutically active agent complexes, polymer complexes, and compositions and methods involving the same” (Durect Corporation, priority 2013, dated 2020).
Read-outs that look alike come from different tables or passages of the source.

How the values were obtained:
Type in all cases: physicochemical
[1] = In vitro dissolution of decitabine and azacytidine from amine functionalized copolymer complex (Example 12); settings: complex with amine functionalized copolymer (Example 2H); PBS pH 7.4, 37° C.; FIG. 7
Experimental: 1.00 g of decitabine or azacytidine powder was placed in a 150 mL wide-mouth glass jar. 100 mL of 50 mM NH4HCO3 solution were added, and the mixture was stirred at 400 rpm for 30 min at room temperature (until it became a visibly clear solution).
100 mL of a 10 mg/mL solution of functionalized complexation polymer were then prepared by stirring 1.00 g of polymer in 100 mL of MilliQ water at 400 rpm (until it became a clear solution).
The decitabine or azacytidine solution was combined with the complexation polymer solution at specific ratios as set forth below and monitored for precipitation. The combined materials were stirred for 30 min and then centrifuged in 50 mL Falcon™ tubes. The supernatant solution was removed for HPLC analysis to determine the quantity of free pharmaceutically active agent (not complexed). The resultant precipitate was resuspended in 50-100 mL of 50 mM NH4HCO3 solution and lyophilized according to the method described in Example 3.
Lyophilized complex powder was suspended in 1 mL ammonium bicarbonate (50 mM).
For dissolution or in vitro release testing, PBS (Phosphate buffered saline) pH˜7.4 was used as the medium, and the complexed powder was dispersed into the dissolution medium. […] The amount of decitabine or azacytidine in solution at each time point was determined by HPLC.

[2] = Attempted complexation of risperidone with carboxylate-functionalized 50:50 copolymer (Example 10); settings: reaction mixture at pH ~5
Experimental: Dissolution experiments were conducted as set forth below to determine the in vitro release from a mixture of risperidone and a carboxylate-functionalized 50:50 copolymer prepared as described in Example 2E. […] This observation is mainly due to the limited solubilities of risperidone and the copolymer in the reaction mixture at pH˜5.
1.00 g of a risperidone powder was placed in a 150 mL wide-mouth glass jar. 100 mL of 50 mM NH4COOCH3 solution were added, and the mixture was stirred at 400 rpm for 30 min at room temperature (until it became a visibly clear solution).
100 mL of a 10 mg/mL solution of functionalized polymer were then prepared by stirring 1.00 g of polymer in 100 mL of MilliQ water at 400 rpm (until it became a clear solution).
The pharmaceutically active agent solution was combined with the polymer solution at specific ratios as set forth below and monitored for precipitation. The combined materials were stirred for 30 min and then centrifuged in 50 mL Falcon™ tubes. The supernatant solution was removed for HPLC analysis to determine the quantity of free pharmaceutically active agent (not precipitated). The resultant precipitate was resuspended in 50-100 mL of 50 mM NH4COOCH3 solution and lyophilized according to the method described in Example 3.

[3] = Stability following exposure to gamma radiation, RPLC purity (Example 30)
Description: The APIs were mixed with the complexable polymers at a ratio of 1:1, 1:4 or 1:10. The instantaneous precipitation was separated from reaction media (ammonium bicarbonate in water) and dried via lyophilization. The dried powder or the dried powder suspended in Benzyl Benzoate were loaded either in glass vial or plastic syringes (Intervene) and packed in aluminum pouches. These samples were exposed to gamma radiation (12.5 kGy-17.5 kGy) for more than 8 hrs at room temperature with radiation indicator sticker (Sterigenics, Corona, Calif.). These gamma irradiated samples were then analyzed for purity using reverse phase liquid chromatography (RPLC) in reference to non-gamma irradiated samples.

With `Nc1ncn([C@@H]2O[C@H](CO)[C@@H](O)[C@H]2O)c(=O)n1` [azacytidine] as the molecule, how does the “stability under the tested dissolution conditions” value [1] read?
Its value is “significantly degraded”.

With `Cc1nc2n(c(=O)c1CCN1CCC(c3noc4cc(F)ccc34)CC1)CCCC2` [risperidone] as the molecule, how does the “complexation outcome with carboxylate-functionalized 50:50 copolymer (Example 2E)” value [2] read?
Its value is “precipitated separately”.

With `CCCCCCCCCCCCCCCC(=O)N[C@@H](CCC(=O)NCCCC[C@H](NC(=O)[C@H](C)NC(=O)[C@H](C)NC(=O)[C@H](CCC(N)=O)NC(=O)CNC(=O)[C@H](CCC(=O)O)NC(=O)[C@H](CC(C)C)NC(=O)[C@H](Cc1ccc(O)cc1)NC(=O)[C@H](CO)NC(=O)[C@H](CO)NC(=O)[C@@H](NC(=O)[C@H](CC(=O)O)NC(=O)[C@H](CO)NC(=O)[C@@H](NC(=O)[C@H](Cc1ccccc1)NC(=O)[C@@H](NC(=O)CNC(=O)[C@H](CCC(=O)O)NC(=O)[C@H](C)NC(=O)[C@@H](N)Cc1cnc[nH]1)[C@@H](C)O)[C@@H](C)O)C(C)C)C(=O)N[C@@H](CCC(=O)O)C(=O)N[C@@H](Cc1ccccc1)C(=O)N[C@H](C(=O)N[C@@H](C)C(=O)N[C@@H](Cc1c[nH]c2ccccc12)C(=O)N[C@@H](CC(C)C)C(=O)N[C@H](C(=O)N[C@@H](CCCNC(=N)N)C(=O)NCC(=O)N[C@@H](CCCNC(=N)N)C(=O)NCC(=O)O)C(C)C)[C@@H](C)CC)C(=O)O` [Liraglutide] as the molecule, how does the “stability after 15 kGy gamma irradiation, non-complexed API” value ([3]; RPLC, relative to the complexed APIs, with a corresponding reduction in potency) read?
Its value is “degraded faster”.

With “HGH: Human Growth Hormone (Biosolutions)” as the molecule, how does the “stability after 15 kGy gamma irradiation, non-complexed API” value [3] read?
Its value is “degraded faster”.
